Source: PubChem BioAssay (NCI)
Several values for one entry are separate records, joined by “and”; a condition that tells them apart may be missing. Equal entries are not always repeated.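 Results reflect a 48-hour exposure of cells in 96-well plates to compound at five concentrations. GI50 = concentration required for 50% inhibition of growth. TGI: total growth inhibition.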

Key:
Experiment in all cases: NCI-60 cell line screen, 48 h
A498 renal = system: A498 renal
LOX IMVI melanoma = system: LOX IMVI melanoma
M14 melanoma = system: M14 melanoma
MALME-3M melanoma = system: MALME-3M melanoma
MDA-MB-231 breast = system: MDA-MB-231 breast
NCI-H460 lung = system: NCI-H460 lung
OVCAR-3 ovarian = system: OVCAR-3 ovarian
RPMI-8226 leukemia = system: RPMI-8226 leukemia
SF-539 CNS = system: SF-539 CNS
SN12C renal = system: SN12C renal
SNB-75 CNS = system: SNB-75 CNS
SW-620 colon = system: SW-620 colon

Row | SMILES | GI50 (A498 renal) [µM] | TGI (A498 renal) | GI50 (LOX IMVI melanoma) [µM] | TGI (LOX IMVI melanoma) | GI50 (M14 melanoma) [µM] | TGI (M14 melanoma) | TGI (MALME-3M melanoma) [µM] | GI50 (MDA-MB-231 breast) [µM] | TGI (MDA-MB-231 breast) | TGI (NCI-H460 lung) [µM] | GI50 (OVCAR-3 ovarian) [µM] | TGI (OVCAR-3 ovarian) | GI50 (RPMI-8226 leukemia) [µM] | GI50 (SF-539 CNS) [µM] | GI50 (SN12C renal) [µM] | TGI (SN12C renal) | TGI (SNB-75 CNS) [µM] | TGI (SW-620 colon) | TGI (RPMI-8226 leukemia) [µM] | TGI (SF-539 CNS) [µM]
1 | COC(=O)c1ccc2c(c1)CCN2C(=O)c1cc2c(cc1Br)OCO2 | 2.62 | 30.8 µM and > 100 µM | 0.936 | 50 µM and 94.7 µM | 0.652 | 6.9 µM and 40.4 µM | 50 | 2 | 50 µM and > 100 µM | 50 | 0.363 | 3.99 µM and 1.43 µM | 1.15 | 2.93 | 3.21 | 48.3 µM and > 100 µM | 50 | 50 µM and > 100 µM | – | –
2 | CCOC(=O)C(C(N)=O)c1nc2cc([N+](=O)[O-])ccc2nc1/C=C(\O)c1ccc(C)cc1 (stereo unspecified) | – | > 67.7 µM | – | 57.4 µM | – | > 100 µM | > 100 | – | 46.7 µM | 58.1 | – | 31.1 µM | – | – | – | 85.5 µM | 42 | > 92.3 µM | 40.6 | 36.5
3 | O=C1CCCc2ccc3c(c21)CC1(Cc2cc4c(cc2C1)CCCC4)C3 | – | > 100 µM | – | 28.5 µM | – | 33.2 µM | 35.8 | – | 38.2 µM | 74.5 | – | 40.3 µM | – | – | – | 54.2 µM | 65.1 | 41.7 µM | 35.5 | 48.7
4 | CCCCC(=O)Nc1ccc2cc(C(=O)OC)c(=O)[nH]c2n1 | – | > 100 µM | – | > 100 µM | – | > 100 µM | > 100 | – | > 100 µM | > 100 | – | > 100 µM | – | – | – | > 100 µM | > 100 | > 100 µM | > 100 | > 100
5 | NC(=O)c1ccc(N)nc1 | – | > 400 µM | – | > 400 µM | – | > 400 µM | > 400 | – | > 400 µM | > 400 | – | > 400 µM | – | – | – | > 400 µM | > 125 | > 400 µM | 201 | 28.3
6 | Cc1cc(S(=O)(=O)Nc2nc(N)n(-c3ccccc3)n2)c(S)cc1Cl | – | > 100 µM | – | > 100 µM | – | > 100 µM | > 100 | – | > 100 µM | > 100 | – | > 100 µM | – | – | – | > 100 µM | > 100 | > 100 µM | > 100 | > 100
7 | C/C(=N\NC(=S)N/N=C(\C)c1ccccn1)c1ccccn1 | – | 82.6 µM | – | > 100 µM | – | 4.88 µM | > 100 | – | > 100 µM | 6.46 | – | > 100 µM | – | – | – | > 100 µM | > 100 | > 100 µM | > 100 | 8.83
8 | CCOC(=O)C(NC(=O)Nc1ccccc1)(Nc1cccc(Cl)c1)C(F)(F)F (stereo unspecified) | – | > 100 µM | – | > 100 µM | – | > 100 µM | > 100 | – | > 100 µM | > 100 | – | > 100 µM | – | – | – | > 100 µM | > 100 | > 100 µM | > 100 | > 100
9 | CC(CCC(=O)O)(c1cc(Br)c(O)c(Br)c1)c1cc(Br)c(O)c(Br)c1 | – | 87.7 µM | – | > 100 µM | – | > 100 µM | > 100 | – | > 100 µM | > 100 | – | > 100 µM | – | – | – | > 100 µM | > 100 | > 100 µM | > 100 | > 100
10 | C=C1CN(C(=O)c2cc3cc(OC)c(OC)c(OC)c3[nH]2)c2cc([N+](=O)[O-])ccc21 | – | > 100 µM | – | > 100 µM | – | > 100 µM | > 100 | – | 88.5 µM | > 100 | – | > 100 µM | – | – | – | > 100 µM | > 100 | > 100 µM | > 100 | > 100
11 | CC(C)=CCC[C@@H](C)c1c(O)c(O)c(C)c2nc3ccccc3nc12 | – | 7.97 µM | – | 16.8 µM | – | 12.9 µM | 7.53 | – | 15 µM | 32.4 | – | 3.28 µM | – | – | – | 6.38 µM | 6.8 | > 100 µM | > 20.2 | 6.71
12 | CCOC(=O)n1c2ccccc2c2c(O)c(OC)c3c(c21)C(=O)NC3=O | – | > 100 µM | – | 38.9 µM | – | > 100 µM | 95.4 | – | 56.4 µM | > 100 | – | > 100 µM | – | – | – | > 100 µM | > 100 | > 100 µM | > 100 | > 100
13 | O=C(O)C(C1NCCS1)N1Cc2ccccc2C1 (stereo unspecified) | – | > 100 µM | – | > 100 µM | – | > 100 µM | > 100 | – | > 100 µM | > 100 | – | > 100 µM | – | – | – | > 100 µM | > 100 | > 100 µM | > 100 | > 100
14 | CC1CCC(O)/C=C/C(=O)OC(C)C(O)/C=C/C(=O)O1 (stereo unspecified) | – | > 100 µM | – | > 100 µM | – | > 100 µM | > 100 | – | > 100 µM | > 100 | – | > 100 µM | – | – | – | > 100 µM | > 100 | > 100 µM | > 100 | > 100
15 | CN(C)c1ccc(C(=C2C=CC(=[N+](C)C)C=C2)c2c(O)c(S(=O)(=O)[O-])cc3cc(S(=O)(=O)O)ccc23)cc1 | – | > 100 µM | – | > 100 µM | – | > 100 µM | > 100 | – | > 100 µM | > 100 | – | > 100 µM | – | – | – | > 100 µM | > 100 | > 100 µM | > 100 | > 100
16 | O=C(NC12CC3CC(CC(C3)C1)C2)n1cnc2cncnc21 | – | > 100 µM | – | 92 µM | – | > 100 µM | 78.6 | – | > 100 µM | > 100 | – | 47 µM | – | – | – | > 100 µM | > 100 | > 100 µM | 79.4 | 54.5
17 | COc1ccc(/C=C/C=C2C(=O)NC(=S)NC2=O)cc1 | – | > 100 µM | – | 3.97 µM | – | 21.7 µM | 14.1 | – | 4.57 µM | 30.6 | – | 29 µM | – | – | – | 19.5 µM | 47.2 | 3.37 µM | 18.2 | 15.8
18 | COC(=O)/C=C1\C(=O)N(C(C)=O)c2ccccc21 | – | 20 µM | – | 18.7 µM | – | 58.7 µM | 27.5 | – | 21.3 µM | 27.1 | – | 23 µM | – | – | – | 24.3 µM | 28.4 | > 100 µM | 47.6 | > 46.4
19 | CN(CCN(C)Cc1ccc(Cl)c(Cl)c1)CCN1CCCC1 | – | 35.3 µM | – | > 58.6 µM | – | > 54.4 µM | 35.8 | – | > 96.1 µM | > 100 | – | > 100 µM | – | – | – | > 100 µM | > 90.5 | > 100 µM | 32.4 | > 59.7
20 | Cc1cc([C@H](C#N)c2nc3ccccc3s2)nc(Cl)n1 | – | 31.3 µM | – | 10.4 µM | – | 79.2 µM | 17 | – | 11 µM | 15.3 | – | > 100 µM | – | – | – | > 100 µM | 6.54 | 15.1 µM | 15.6 | 64
21 | CCCc1c(OC)c(O)c2c(=O)cc(OC)c3c4c(OC)cc(=O)c5c(O)c(OC)c(CCC)c(c1c23)c54 | – | 31 µM | – | 4.91 µM | – | 20.4 µM | 10.7 | – | 8.54 µM | 18.1 | – | 13.1 µM | – | – | – | 15.3 µM | 23.6 | 16.9 µM | > 100 | 34.7
22 | NC(=O)NC1=NCCC(=O)N1CCc1c[nH]c2ccccc12 | – | 46.1 µM | – | 26.8 µM | – | 29.3 µM | 36.9 | – | 29.4 µM | 39.5 | – | 47.8 µM | – | – | – | 54.7 µM | 44.5 | 57.7 µM | 50.6 | 30.9
23 | CCNc1nc2ccccc2nc1NCC | – | > 100 µM | – | > 100 µM | – | > 100 µM | > 100 | – | > 100 µM | > 100 | – | > 100 µM | – | – | – | > 100 µM | > 100 | > 100 µM | > 100 | > 100
24 | Nc1c2c(nc3ccccc13)-c1ccccc1CCC2 | – | 21.4 µM | – | 25.3 µM | – | 25.8 µM | 27.5 | – | 27.8 µM | 18 | – | 29.8 µM | – | – | – | 36.5 µM | 24.2 | 26.2 µM | 33.5 | 26.2
25 | C/C(=C/CC[C@](C)(OC1OC(CO)C(O)C(O)C1OC1OC(C)C(O)C(O)C1O)[C@H]1CC[C@]2(C)[C@@H]1CC[C@@H]1[C@@]3(C)CC[C@H](O)C(C)(C)[C@@H]3C[C@H](O)[C@]12C)CO (stereo partly specified) | – | > 100 µM | – | > 100 µM | – | > 100 µM | > 100 | – | > 100 µM | > 100 | – | > 100 µM | – | – | – | > 100 µM | > 100 | > 100 µM | > 100 | > 100
